For assay [1], the target named is T1, insulin receptor (Homo sapiens, UniProt P06213). Briefly: 125I insulin binding to CHO.T11 cells. Also noted: expressed in transfected cells. As to the method:
(§1) Tubes were mixed and incubated for 16 h at 4° C. After the incubation, the tubes were placed on ice and 300 μL of a 1:5 suspension of 0.4% bovine-γ-globulin in 20% polyethyleneglycol 6000 (BDH chemicals) was added to each tube, mixed thoroughly and left to incubate for 30 min on ice. The tubes were then centrifuged (3,000 g) for 30 min at 4° C., the supernatant was aspirated off and the pellet counted for radioactivity. […] Inhibition constants were estimated by graphical analysis of displacement plots or calculated using the curve fitting programs EBDA and/or LIGAND.
Target sequence in this assay (P06213 28-758 limits assumed): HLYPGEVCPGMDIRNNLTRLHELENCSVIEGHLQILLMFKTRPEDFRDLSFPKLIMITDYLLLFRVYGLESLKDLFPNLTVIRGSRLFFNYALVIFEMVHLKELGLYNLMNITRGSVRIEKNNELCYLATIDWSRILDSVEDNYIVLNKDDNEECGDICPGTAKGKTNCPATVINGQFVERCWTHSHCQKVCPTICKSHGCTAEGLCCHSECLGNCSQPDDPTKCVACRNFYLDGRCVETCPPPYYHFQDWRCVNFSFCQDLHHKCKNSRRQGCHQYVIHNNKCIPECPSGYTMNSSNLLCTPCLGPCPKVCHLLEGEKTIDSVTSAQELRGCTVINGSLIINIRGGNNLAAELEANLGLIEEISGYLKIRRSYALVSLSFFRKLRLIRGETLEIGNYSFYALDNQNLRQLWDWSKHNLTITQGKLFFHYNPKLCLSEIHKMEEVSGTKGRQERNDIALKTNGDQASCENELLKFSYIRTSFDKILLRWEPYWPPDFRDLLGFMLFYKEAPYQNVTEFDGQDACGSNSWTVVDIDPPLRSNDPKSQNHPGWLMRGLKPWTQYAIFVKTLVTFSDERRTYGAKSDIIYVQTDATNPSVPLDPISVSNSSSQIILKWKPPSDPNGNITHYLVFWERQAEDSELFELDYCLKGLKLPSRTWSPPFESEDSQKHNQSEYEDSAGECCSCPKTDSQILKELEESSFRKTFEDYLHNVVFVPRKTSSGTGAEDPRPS

For the next assay, the target named is IGF-1 receptor (Homo sapiens, UniProt P08069). Briefly: 125I IGF-1 binding to human placental plasma membranes (HPPM). Also noted: from tissue; host or cells: human placenta, plasma membranes. Particulars: HPPM; read-out: Ki, competition for 125I IGF-1 binding.
Sequence of IGF-1 receptor (P08069 31-736 limits assumed): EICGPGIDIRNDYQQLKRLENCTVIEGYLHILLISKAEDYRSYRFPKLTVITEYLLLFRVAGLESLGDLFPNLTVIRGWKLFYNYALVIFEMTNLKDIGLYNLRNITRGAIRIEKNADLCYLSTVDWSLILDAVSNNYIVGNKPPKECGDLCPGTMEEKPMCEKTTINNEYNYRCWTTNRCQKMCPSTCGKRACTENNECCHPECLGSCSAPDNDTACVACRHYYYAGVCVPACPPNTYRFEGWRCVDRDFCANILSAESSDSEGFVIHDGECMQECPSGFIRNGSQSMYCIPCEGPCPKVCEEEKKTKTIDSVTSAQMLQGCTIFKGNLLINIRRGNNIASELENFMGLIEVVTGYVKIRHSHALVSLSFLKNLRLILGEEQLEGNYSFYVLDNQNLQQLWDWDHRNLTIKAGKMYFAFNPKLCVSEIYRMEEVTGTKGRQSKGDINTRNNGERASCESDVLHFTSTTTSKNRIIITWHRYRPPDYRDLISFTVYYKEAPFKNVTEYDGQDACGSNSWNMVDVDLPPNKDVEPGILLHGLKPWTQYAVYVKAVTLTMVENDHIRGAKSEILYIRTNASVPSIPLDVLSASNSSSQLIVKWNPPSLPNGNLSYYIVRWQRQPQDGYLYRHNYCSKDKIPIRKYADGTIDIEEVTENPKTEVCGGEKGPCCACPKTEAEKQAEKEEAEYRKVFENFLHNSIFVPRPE
A further assay deals with 3T3L1 adipocyte cells. Nature of the assay: Glucose transport (3H-deoxyglucose uptake) in 3T3L1 adipocyte cells. It counts as cell-based, mouse. How it is done: Glucose transport was determined using a modification of the method of S. J. Isakoff et at. (23). The assay involved measuring the effect of compounds on the uptake of ^3H-deoxyglucose into 3T3L1 adipocyte cells.
The cell line, 3T3-L1, derived from mouse embryo fibroblasts, was grown in 250 mL tissue culture flasks containing 15 mL medium made up of DMEM (Dulbecco's modified Eagle's medium containing glutamine, 2 mM; sodium bicarbonate, 30 mM; penicillin 71.5 mg/litre; streptomycin, 152.5 mg/litre) supplemented with 10% foetal calf serum (FCS), pH 7.4. Cells were maintained in a humidified incubator at 37° C. in a 5% CO2 environment. The medium was changed every 3 days and the cells were split when they were about 70-80% confluent.
3T3-L1 fibroblast cells from one tissue culture flask were suspended in 50 mL of DMEM media containing 10% FCS and 0.5 mL of this suspension were seeded into each well of two 48-well tissue culture plates. The differentiation of the cells was initiated when the fibroblast cells were fully confluent. Routinely, differentiation was induced on cells that had been growing in tissue culture plates for 4-5 days. […] The cells were subsequently maintained with DMEM medium containing 10% FCS.
One day prior to the glucose transport assay, cell medium was replaced with DMEM containing 10% charcoal-treated foetal calf serum (CTFCS). On the day of the assay, the medium was aspirated and each well was washed with 1 mL of 25 mM Hepes, pH 7.4 containing 0.9% NaCl (NaCl-HEPES). […] Ten microlitres of NaCl-HEPES containing 3 mM 2-deoxy-D-glucose and 0.1 μCi 2-deoxy-D-[1-^3H]glucose were then added. Following a 10 min incubation at 37° C., the medium was aspirated off and the wells rapidly washed three times with 1 mL of ice-cold 50 mM phosphate, pH 7.5 containing 150 mM NaCl (PBS) and 10 mM glucose. Two hundred microlitres of 3% Triton X-100 was then added to each well and left to incubate for a minimum of 10 minutes. One hundred microlitres of the solubilised cells was then added to 2.5 mL of liquid scintillation fluid and counted for radioactivity in a Beckman β-counter.

Assay [2] deals with T1, insulin receptor. Nature of the assay: 125I insulin binding to human placental plasma membranes (HPPM). Also noted: Human Placental Plasma Membranes—50 mM Hepes, pH 7.8 @ 4 C containing 100 U/mL Bacitracin; from tissue; host or cells: human placenta, plasma membranes. As to the method: as §1
Target sequence in this assay (P06213 28-758 limits assumed): as the sequence (P06213 28-758 limits assumed) above
Assay [3] deals with T1, insulin receptor. Briefly: Assays of insulin action (several biological assays, classification agonist/antagonist).
Target sequence in this assay (P06213 with tags, fused parts or gaps): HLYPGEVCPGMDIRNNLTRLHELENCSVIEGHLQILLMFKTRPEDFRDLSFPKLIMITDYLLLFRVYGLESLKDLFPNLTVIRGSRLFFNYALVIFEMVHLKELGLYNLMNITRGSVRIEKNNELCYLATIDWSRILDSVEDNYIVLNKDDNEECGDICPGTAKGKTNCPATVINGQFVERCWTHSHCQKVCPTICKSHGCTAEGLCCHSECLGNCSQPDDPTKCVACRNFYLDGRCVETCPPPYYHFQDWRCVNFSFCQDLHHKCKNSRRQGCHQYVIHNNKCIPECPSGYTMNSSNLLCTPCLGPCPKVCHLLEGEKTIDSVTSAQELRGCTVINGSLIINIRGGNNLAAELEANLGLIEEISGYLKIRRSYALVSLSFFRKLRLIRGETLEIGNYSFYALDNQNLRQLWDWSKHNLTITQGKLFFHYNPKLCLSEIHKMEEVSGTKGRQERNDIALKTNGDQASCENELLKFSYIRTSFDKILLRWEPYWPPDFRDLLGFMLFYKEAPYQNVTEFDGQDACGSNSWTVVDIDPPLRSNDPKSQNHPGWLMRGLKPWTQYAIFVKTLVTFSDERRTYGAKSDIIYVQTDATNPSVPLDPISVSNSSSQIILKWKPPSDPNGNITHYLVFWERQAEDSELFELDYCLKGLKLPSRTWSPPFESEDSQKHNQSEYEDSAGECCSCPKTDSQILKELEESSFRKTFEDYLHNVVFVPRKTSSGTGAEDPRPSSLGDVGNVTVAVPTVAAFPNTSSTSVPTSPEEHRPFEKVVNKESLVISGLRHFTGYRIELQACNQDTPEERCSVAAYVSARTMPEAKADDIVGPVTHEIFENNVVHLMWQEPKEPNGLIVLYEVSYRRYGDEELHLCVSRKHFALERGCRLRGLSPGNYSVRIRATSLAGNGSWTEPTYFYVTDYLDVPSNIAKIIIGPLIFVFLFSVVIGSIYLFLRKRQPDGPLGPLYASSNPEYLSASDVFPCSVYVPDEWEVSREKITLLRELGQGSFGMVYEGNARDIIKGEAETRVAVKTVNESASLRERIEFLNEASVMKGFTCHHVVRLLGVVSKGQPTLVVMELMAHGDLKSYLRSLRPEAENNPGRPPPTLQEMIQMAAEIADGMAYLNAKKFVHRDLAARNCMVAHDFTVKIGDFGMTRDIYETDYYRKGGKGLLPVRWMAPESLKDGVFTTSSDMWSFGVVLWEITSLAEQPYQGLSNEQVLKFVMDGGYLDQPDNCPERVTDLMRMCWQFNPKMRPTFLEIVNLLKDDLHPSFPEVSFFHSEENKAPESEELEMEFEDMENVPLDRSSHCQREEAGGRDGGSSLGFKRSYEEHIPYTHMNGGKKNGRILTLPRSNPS
For assay [4], the target named is T1, insulin receptor. Briefly: 125I insulin binding to wheat germ agglutinin purified insulin receptors (WGA.IR). The arrangement: host or cells: several: placental membranes, CHO.T11 cells, WGA purified receptors. Particulars: LIGAND 1-site fit. How it is done:
as §1
Target sequence in this assay (P06213 28-758 limits assumed): as the sequence (P06213 28-758 limits assumed) above

The target in assay [5] is T1, insulin receptor. Briefly: 125I insulin binding, insulin receptors from a number of sources. The arrangement: host or cells: several: placental membranes, CHO.T11 cells, WGA purified receptors. The following applies: range over receptor sources. How it is done:
as §1
Target sequence in this assay (P06213 28-758 limits assumed): as above

Assay [6] has as its target insulin receptor β-subunit associated tyrosine kinase activity (Homo sapiens, UniProt P06213). Briefly: Protein tyrosine kinase (PTK) assay, 32P incorporation into FYF peptide. It counts as biochemical. The following applies: for effect of compound alone on 32P incorporation into FYF peptide: basal, absence of insulin; for Ki: read-out: estimated inhibition constant, PTK assay. As to the method:
Protein tyrosine kinase activity was determined using a modification of the method of N. Konstantopoulos (22).
The reaction was allowed to proceed for 20 minutes at 30° C. before it was terminated by the addition of 12.5 μL of 7.5 M guanidine hydrochloride. An aliquot (10 μL) of the reaction mixture was then spotted onto a Whatman 81 phosphocellulose paper (15 mm×15 mm), washed three times (2 min per wash) in about 50 mL of 30% acetic acid, 0.05% orthophosphoric acid then finally, with one wash in about 200 mL of water. The papers were then rinsed briefly (15 sec) in 95% ethanol, dried, suspended in 2.5 mL of scintillation fluid (Beckman) and counted for radioactivity in a Beckman β-counter.

Setting [7] is: human placental plasma membranes, 16 h at 4° C.
Setting [8] is: 3T3L1 cells, 2 nM insulin; read-out: estimated inhibition constant (Ki), glucose transport assay.
[9] abbreviates: read-out: estimated IC50, 32P incorporation into FYF peptide.
Where [10] appears, read: Mus musculus, 3T3-L1; read-out: estimated IC50, glucose transport.

Read-outs that look alike come from different tables or passages of the source.

Sequence of insulin receptor β-subunit associated tyrosine kinase activity (P06213 28-758 limits assumed): as above

As to `O=S(=O)(NS(=O)(=O)C(F)(F)F)c1cc(Cl)cc(Cl)c1OS(=O)(=O)c1cc(Cl)cc(Cl)c1O` [IM 103, 2,4-dichloro-6-(N-(trifluoromethanesulfonyl))sulfamoylphenyl 3,5-dichloro-2-hydroxybenzenesulfonate], the Ki on insulin receptor [1] is 132 ± 29 µM; at IGF-1 receptor, 59 µM; at insulin receptor [2] (setting [7]), 137 ± 45 µM; on insulin receptor [4], 83 µM. Further, the EC50 (in general, the concentration at which the effect is half-maximal) with 3T3L1 adipocyte cells (Mus musculus, 3T3-L1; compound alone; read-out: apparent EC50, stimulation of glucose transport) turned out to be 45 ± 7 µM. Besides, in the assay with 3T3L1 adipocyte cells (compound alone, relative to maximal dose of insulin (100 nM)), the “efficacy compared with insulin, glucose transport” value is recorded as “about 15%”. Moreover, the “concentration at apex of bi-phasic dose response curve” value in the assay with 3T3L1 adipocyte cells (glucose transport) is 110 µM. Also, the “effect on insulin stimulated glucose transport” value in the assay with 3T3L1 adipocyte cells (in presence of insulin (2 nM)) was “abolishes the insulin stimulation of glucose transport in a dose dependent manner”. The “classification of insulin action” value at insulin receptor [3] is “agonists of insulin action”.
In the case of `CCCc1c(OCCCOc2cc(O)c(-c3cc[nH]n3)cc2CC)ccc2c1OC(C(=O)O)CC2` (stereo not shown) [IM 132, 3,4-dihydro-8-propyl-7-[[3-[2-ethyl-5-hydroxy-4-(1H-pyrazol-3-yl)phenoxy]propyl]oxy]-2H-1-benzopyran-2-carboxylic acid], the Ki at insulin receptor [5] was 200 to 450 µM; in assay [6], 360 µM; with 3T3L1 adipocyte cells (setting [8]), 64 µM. Moreover, the “effect of compound alone on 32P incorporation into FYF peptide” value in assay [6] was “does not increase ^32P incorporation into FYF peptide”. Moreover, the “effect of compound alone on glucose transport” value (shortened to “effect … on glucose transport”) in the assay on 3T3L1 adipocyte cells (basal, no insulin) is recorded as “does not increase ^32P incorporation into FYF peptide or activate glucose transport”. Moreover, the “effect on insulin stimulated glucose transport” value in the assay on 3T3L1 adipocyte cells (in presence of insulin (2 nM)) is listed as “significant synergism with insulin”. Further, on insulin receptor [3], the “classification of insulin action” value is given as “antagonists of insulin action”.
Consider `CCCc1c(OCc2ccc3ccccc3c2)ccc2c1OC(C(=O)O)CC2` (stereo not shown) [IM 144, 7-(naphth-2′-ylmethoxy)-8-propyl-3,4-dihydro-2H-1-benzopyran-2-carboxylic acid], for which the “effect of compound alone on 32P incorporation into FYF peptide” value in assay [6] is given as “does not increase ^32P incorporation into FYF peptide”. For the same compound, the Ki is 130 µM in assay [6], 125 µM in the assay on 3T3L1 adipocyte cells (setting [8]) and 900 µM on insulin receptor [2] (setting [7]). The “effect … on glucose transport” value in the assay on 3T3L1 adipocyte cells (basal, no insulin) is given as “does not increase ^32P incorporation into FYF peptide or activate glucose transport”. Further, the “classification of insulin action” value at insulin receptor [3] is “antagonists of insulin action”.
Take `CCCc1c(OCCCOc2cc(O)c(-c3ccc(F)cc3)cc2CC)ccc2c1OC(C(=O)O)CC2` (stereo not shown) [IM 171, 8-propyl-7-[3-[4-(4-fluorophenyl)-2-ethyl-5-hydroxyphenoxy]propoxy]-3,4-dihydro-2H-1-benzopyran-2-carboxylic acid]: the “effect of compound alone on 32P incorporation into FYF peptide” value in assay [6] is reported as “does not increase ^32P incorporation into FYF peptide”. The IC50 in assay [6] (setting [9]) is 250 µM; with 3T3L1 adipocyte cells (setting [10]), 80 µM. Further, the “effect … on glucose transport” value with 3T3L1 adipocyte cells (basal, no insulin) was “does not increase ^32P incorporation into FYF peptide or activate glucose transport”. Further, the Ki on insulin receptor [2] (setting [7]) came out at 370 µM. Moreover, the “classification of insulin action” value on insulin receptor [3] was “antagonists of insulin action”.
For the compound `CCCc1c(OCc2ccc3ccccc3n2)ccc2c1OC(C(=O)O)CC2` (stereo not shown) [IM 143, 8-propyl-7-(quinol-2′-ylmethoxy)-3,4-dihydro-2H-1-benzopyran-2-carboxylic acid], the Ki with 3T3L1 adipocyte cells (setting [8]) is 40 µM; at insulin receptor [2] (human placental plasma membranes), roughly 2000 µM. Also, the “effect … on glucose transport” value in the assay on 3T3L1 adipocyte cells (basal, no insulin) is reported as “does not stimulate glucose transport activity”. Further, the “classification of insulin action” value at insulin receptor [3] was “antagonists of insulin action”.
With `CCCN(CCC)c1c([N+](=O)[O-])cc(S(=O)(=O)NS(=O)(=O)C(F)(F)F)cc1[N+](=O)[O-]` [IM 145, N-(trifluoromethanesulfonyl)-3,5-dinitro-4-(N′,N′-dipropylamino)benzenesulfonamide], in assay [6], the IC50 was 90 µM and the “effect of compound alone on 32P incorporation into FYF peptide” value is “does not stimulate PTK”. For the same compound, in the assay on 3T3L1 adipocyte cells (Mus musculus, 3T3-L1, read-out: estimated IC50, glucose transport), the IC50 is 60 µM. Besides, the “effect … on glucose transport” value in the assay on 3T3L1 adipocyte cells (basal, no insulin) is listed as “does not stimulate PTK or glucose transport activity”. This compound also showed a Ki at insulin receptor [2] of roughly 1000 µM. Also, the “classification of insulin action” value at insulin receptor [3] is “antagonists of insulin action”.
As for `O=C(O)c1cc2ccccc2c(Cc2c(O)c(C(=O)O)cc3ccccc23)c1O` [IM 025, 4,4′-Methylenebis[3-hydroxy-2-naphthalenecarboxylic acid]], the values for the Ki on insulin receptor [1], on insulin receptor [5] and at insulin receptor [4] were 137 to 337 µM, 100 to 400 µM and 108 ± 32 µM, respectively. Also, the IC50 in assay [6] (setting [9]) is 150 µM; in the assay on 3T3L1 adipocyte cells (setting [10]) it was 170 µM. Besides, at insulin receptor [3], the “classification of insulin action” value is “antagonists of insulin action”.
With `CCCc1c(OCCCOc2cc(O)c(C(C)=O)cc2CC)ccc2c1OC(C(=O)O)CC2` (stereo not shown) [IM 071, 7-[3-(4-acetyl-2-ethyl-5-hydroxyphenoxy)propoxy]-3,4-dihydro-8-propyl-2H-1-benzopyran-2-carboxylic acid], on insulin receptor [3], the “classification of insulin action” value is “antagonists of insulin action”.
`CCCc1c(OCCCOc2cc(O)c(OCC)cc2CC)ccc2c1OC(C(=O)O)CC2` (stereo not shown) [IM 134, 3,4-dihydro-8-propyl-7-[[3-[2-ethyl-5-hydroxy-4-ethoxyphenoxy]propyl]oxy]-2H-1-benzopyran-2-carboxylic acid]: the “effect of compound alone on 32P incorporation into FYF peptide” value in assay [6] is “does not increase ^32P incorporation into FYF peptide”. Further, the Ki in assay [6] was 300 to 400 µM; in the assay on 3T3L1 adipocyte cells (setting [8]) it was 60 to 110 µM; on insulin receptor [2] (setting [7]), 900 µM. Further, the “effect … on glucose transport” value in the assay with 3T3L1 adipocyte cells (basal, no insulin) is reported as “does not increase ^32P incorporation into FYF peptide or glucose transport”. Further, the “classification of insulin action” value on insulin receptor [3] is recorded as “antagonists of insulin action”.
For `CCCc1c(COc2ccc3c(=O)cc(C(=O)O)oc3c2CCC)ccc(C(C)=O)c1O` [IM 127, 7-[(4-acetyl-3-hydroxy-2-propylphenyl)methoxy]-4-oxo-8-propyl-4H-1-benzopyran-2-carboxylic acid], the Ki is 60 µM with 3T3L1 adipocyte cells (setting [8]), 140 to 320 µM at insulin receptor [2] (setting [7]) and 295 µM at insulin receptor [4]. The “classification of insulin action” value at insulin receptor [3] is “antagonists of insulin action”.

Source of the values: patent publication US6933272B1 (priority 1998, dated 2005).
